Assay results taken from patent publication US11219641B2 («NORMOPHARM» LIMITED LIABILITY COMPANY [RU/RU], priority 2017, dated 2022).
Read-outs that look alike come from different tables or passages of the source.

How the values were obtained:
[1] = tested on: model of chronic alcohol intoxication; conditions: treatment series
Procedure: (§1) Materials and Methods. White Wistar male rats weighing 200-250 g (n=168) were used as a model object. The investigation was approved by ethical committee of Federal State Budgetary Educational Institution of Higher Professional Education “Ivanovo State Medical Academy”, the Ministry of Health of the Russian Federation” on Mar. 15, 2016; all procedures and experiments on rats were conducted in compliance with the international rules of treating animals used for scientific purposes. Animals were housed in equal rooms in cages of 7 rats in each at 19-21° C. Animals were given 40-50 g of a mixed fodder per animal every day.
(§2) Creating a model of alcohol dependence.
(§3) Preparation dosage and application. […] Each group contained 21 animals.
(§4) Neurological testing. A general assessment of somatic and neurological status of animals was performed in all examined groups.
(§5) In the open field test (OFT), vertical activity, horizontal activity, frequency of dipping into the holes (a hole exploratory test or “burrow reflex”), grooming frequency, and frequency of central zone entries were registered. In OFT, an animal was placed in one and the same square located near the wall. An exposure time for each animal in the model was 5 min. A round OF represented an arena 1 m in diameter and a wall of 0.4 m height with the floor divided into sectors. Three zones were marked in the open field: central, intermediate (6 sectors), peripheral (12 sectors). Two 60 W lamps were located at a height of 1.5 m from the chamber floor over the central field segments. Horizontal activity in the central and peripheral zone, vertical activity, grooming frequency, frequency of defecation, burrow reflexes were fixed during the test. The walls and floor were treated with a wet and dry cloth after each animal.

[2] = tested on: model of chronic alcohol intoxication; conditions: after 7 days, treatment series
Procedure: as §1, §2, §3, §4
The time spent in the open and closed arms and in the maze center, duration of grooming in the closed arm, a number of grooming episodes in the closed arm were registered during the elevated plus maze test (EPMT). The tested object was placed in the center of EPM with its nose towards the open arm. The time of testing the animals in the EPM amounted to 5 min. The apparatus used in the test consisted of two arms with an open area at the site of their crossing. One of the maze arms had closed compartments. The maze was installed at a height of 1 m from the floor. The time spent in the open and closed arm, grooming frequency, and rearing frequency were registered.

[3] = tested on: damaged neurocytes of the pyramidal layer of the forebrain cortex; test: Morphometric histological analysis of forebrain cortex neurocytes, prophylaxis series; format: in vivo, Wistar rats; conditions: 5 mg/kg, prophylactic application; placebo group 34.8%
Procedure: as §2, §3
Histological analysis of the nervous tissue. The brain after craniotomy was wholly removed and fixed in a 10% solution of neutral formalin, in 24 hours a zone of precentral gyrus of the forebrain was exposed by frontal incisions. Preparation of nerve tissue specimens was performed according to a standard procedure (dehydration in ethyl alcohol, xylene) with subsequent fabrication of paraffin blocks. Histological sections of 6 μm thick made on a sliding Microm microtome were stained with hematoxylene and eosin. Section duplicates were Nissl-stained with a reagent kit (Biovitrum Co.) and impregnated with silver. Histological sections were morphometrically examined using BioVision image analyzer (Austria) for counting damaged neurocytes of the pyramidal layer of the forebrain cortex in 10 various fields of vision with subsequent statistical processing of the results. Microphotographs were obtained with the help of the research Micros microscope and DCM 900 digital ocular camera.

[4] = tested on: model of chronic alcohol intoxication; test: Neurological testing (OFT, EPMT), prophylaxis series; format: in vivo, Wistar rats
Procedure: as §2, §3, §4, §5
The time spent in the open and closed arms and in the maze center, duration of grooming in the closed arm, a number of grooming episodes in the closed arm were registered during the elevated plus maze test (EPMT). […]

[5] = tested on: model of chronic alcohol intoxication; conditions: prophylaxis series
Excerpt: as §2, §3

[6] = Wistar rats, literature (Ostrenko et al.); cited from earlier work
[7] = tested on: model of chronic alcohol intoxication; test: Observation of abstinence after alcohol withdrawal, treatment series; conditions: after alcohol solution withdrawal, 5, 10, 30 mg/kg
Procedure: Creating a model of alcohol dependence. The criterion for selecting rats, along with the absence of obvious abnormalities in the state and behavior, was an initial preference for 6% ethyl alcohol over tap water. To determine this preference, a preliminary experiment was conducted during 3 days in the individual cages with a free access to both liquids. Once a selection has been done, 6% ethyl alcohol was offered as the only source of liquid, a week later the concentration of alcohol was increased to 15%. After 2 weeks, alcohol was replaced by tap water.
Preparation dosage and application. The experiment was carried out in two series «prophylaxis» and «treatment» with four groups in each series: (1) dose 30 mg/kg (experimental group 1), (2) dose 10 mg/kg (experimental group 2), (3) dose 5 mg/kg (experimental group 3), (4) placebo group. In the experiments of “prophylaxis” series, the preparation was introduced concurrently with model creation, while in the experiments of “treatment” series it was done after model creation. Each group contained 21 animals. Said preparation was introduced intragastrically via a probe once a day in volume of 0.5 ml per each animal for 14 days.
“Treatment” represents a more rigid model of alcohol intoxication for evaluation of the preparation efficacy.

[8] = 5 mg/kg intragastrically once a day, after 7 days
[9] = 10 mg/kg intragastrically once a day, after 7 days
[10] = 30 mg/kg intragastrically once a day, after 7 days
[11] = 5 mg/kg intragastrically once a day
[12] = 10 mg/kg intragastrically once a day
[13] = 30 mg/kg intragastrically once a day

O=C1O[C@H]([C@@H](O)CO)C([O-])=C1O.[Li+] [lithium ascorbate]
Frequency of dipping into the hole (OFT) [1, 8]: 1.1 times
Grooming frequency (OFT) [1, 8]: 8.9 times
Horizontal locomotor activity central (OFT) [1, 8]: 1.0
Horizontal locomotor activity peripheral (OFT) [1, 8]: 19.3
Number of boluses (OFT) [1, 8]: 15.1 pcs
Frequency of dipping into the hole (OFT) [1, 9]: 1.9 times
Horizontal locomotor activity central (OFT) [1, 9]: 1.8
Number of boluses (OFT) [1, 9]: 12.6 pcs
Vertical locomotor activity (OFT) [1, 9]: 1.4
Frequency of dipping into the hole (OFT) [1, 10]: 2.0 times
Horizontal locomotor activity central (OFT) [1, 10]: 1.9
Number of boluses (OFT) [1, 10]: 12.2 pcs
Vertical locomotor activity (OFT) [1, 10]: 1.6
dose at which adequate efficacy was noted, treatment purposes ([1]; doses 5, 10, 30 mg/kg compared): 5 mg/kg
Grooming frequency (EPMT) [2, 11]: 9.1 times
Time spent in the closed arm (EPMT) [2, 11]: 270.67 s
Time spent in the open arm (EPMT) [2, 11]: 27.73 s
Grooming frequency (EPMT) [2, 12]: 6.3 times
Time spent in the closed arm (EPMT) [2, 12]: 265.19 s
Time spent in the open arm (EPMT) [2, 12]: 34.81 s
Vertical activity (EPMT) [2, 12]: 1.5
Grooming frequency (EPMT) [2, 13]: 5.8 times
Time spent in the closed arm (EPMT) [2, 13]: 259.01 s
Time spent in the open arm (EPMT) [2, 13]: 38.26 s
amount of the damaged cortex cells [3]: 18.5%
dose from which effective prophylaxis of neurological disorders was noted ([4]; introduced with alcohol for 2 weeks): ≥ 5 mg/kg
vertical activity in neurological tests ([4]; various dosages during 2 weeks): increased vertical activity
catecholamine content in the animal blood ([5]; applied together with alcohol): inhibited the increase of catecholamine content
MDA levels in blood serum [5]: decreased MDA levels
toxicity class [6]: Class 5
cramps during abstinence [7]: No cramps were noted
number of aggressive incidents during abstinence [7]: reduced the number of aggressive incidents
